Measured values taken from PMC8849047, “Salicylate metal-binding isosteres as fragments for metalloenzyme inhibition” (Chemical Science, 2022).
Read-outs that look alike come from different tables or passages of the source.

Columns and labels:
[1] = test system: influenza H1N1 N-terminal PA endonuclease (PAN); assay: PAN endonuclease inhibition assay (fluorescent ssDNA-oligo substrate); assay type: biochemical; conditions: 100 μM; standard deviation in parentheses
[2] = biological target: T1, Recombinant human glyoxalase I (GLO1) (Homo sapiens, UniProt Q04760); assay: GLO1 enzyme inhibition assay (absorbance at 240 nm); assay type: biochemical; conditions: for inhibition at 100 µM: read-out: %inhib GLO1
T1 construct: purchased R&D Systems 4959-GL
T1 sequence (Q04760 2-184 limits assumed): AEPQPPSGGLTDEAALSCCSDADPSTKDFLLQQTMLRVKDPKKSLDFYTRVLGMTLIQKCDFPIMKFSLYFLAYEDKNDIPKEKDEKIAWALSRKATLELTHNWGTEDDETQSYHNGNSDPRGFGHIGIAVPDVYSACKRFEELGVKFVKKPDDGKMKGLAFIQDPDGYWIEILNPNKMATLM
Experimental: To evaluate if the salicylate MBIs could serve as starting points for future FBDD campaigns, the MBI library was screened for inhibitory activity against human glyoxalase I (GLO1) at fragment concentrations of 100 μM (Table 2). […] Recombinant human glyoxalase I (GLO1) was purchased from R&D Systems (catalog #4959-GL). Assays were carried out in 0.1 M sodium phosphate, pH 7.0 buffer, utilizing 96-well clear UV plates (Corning UV Transparent Microplates, catalog #3635). A fresh solution of GSH (100 mM) and methylglyoxal (MG) (100 mM) was prepared in Millipore grade water. […] The substrate mixture was vortexed vigorously for 45 s and then allowed to sit at room temperature for 15 min. The initial well volume was 50 μL containing GLO1 (40 ng) and inhibitor. This protein and inhibitor mixture was incubated for 15–20 min prior to addition of the substrate. […] The enzyme activity was measured utilizing a Biotek Synergy HT or H4 plate reader by measuring absorbance at 240 nm every 1 min for a duration of 8 min. The rate of absorbance increase was compared for samples versus controls containing no inhibitor (set at 100% activity). The absorbance reading for background wells containing DMSO, buffer, and substrate (no enzyme or inhibitor) was subtracted from the experimental wells. […] Dose-response curves were generated, analysed and fitted to obtain IC50 values (see ESI ^†).
5. Single Point screening
Single point screening of salicylate MBI library against GLO1 at 100 µM inhibitor concentration. Chugai 1 (4,6-diphenyl-N-hydroxypyridone) 4 as positive control. […]
6. Dose-response curves against GLO1
The raw data from the GLO1 assay was background corrected and normalized from 0 to 100 with 100 being the largest mean of each dataset. A variable slope log-logistic model was chosen for curve fitting.
The corresponding datapoints are shown as empty bullets and were not included in the curve-fitting. The resulting restricted datasets were fitted according to a literature procedure setting the lower limit of the dose-response curve to zero. This compensates for the loss of information caused by trimming of the dataset. 5,6
Figure S7. Dose-response curve of 11 against GLO1.

[3] = biological target: T2, Human recombinant MMP-3 catalytic domain (Homo sapiens, UniProt P08254); assay: MMP-3 enzyme inhibition assay (chromogenic substrate, 412 nm); assay type: biochemical; conditions: standard deviation in parentheses, read-out: %inhib MMP-3
T2 construct: Human recombinant MMP-3 catalytic domain was purchased; purchased ENZO Life Sciences BML-SE109-9090
Experimental: To probe the selectivity of the salicylate MBIs, the library was screened against matrix metalloproteinase-3 (MMP-3) at fragment concentrations of 100 μM (Table 2).
Human recombinant MMP-3 catalytic domain was purchased from ENZO Life Sciences (catalog # BML-SE109-9090). Assays were carried out in clear Costar 96-well, half-area, flat-bottom assay plates (catalog # 80-2404). Each well contained a total volume of 100 μL including buffer (50 mM MES, 10 mM CaCl2, 0.05% Brij-35, 1 mM DNTB, pH 6.0), MMP-3 (2 U), and the fragment solution. After a 30 min incubation period at 37 °C, the reaction was initiated by the addition of 10 μL of chromogenic MMP-3 substrate (100 μM final concentration, Ac-Pro-Leu-Gly-[2-mercap-to-4-methyl-pentanoyl]-Leu-Gly-OC2H5, ENZO Life Sciences, catalog #BML-P125-0005). Absorbance was monitored at 412 nm using a Bio-Tek ELx 808 colorimetric plate reader, and measurements were recorded every minute for 10 min. The rate of absorbance increase was compared for samples versus negative controls (no inhibitor, arbitrarily set as 100% activity).
5. Single Point screening […]
Figure S5. Single point screening of salicylate MBI library against MMP-3 at 100 µM inhibitor
concentration. NNGH as positive control.

[4] = log P by potentiometric titration octanol/water (Sirius T3); log D7.4 calculated from pKa and log P; assay type: physicochemical
Experimental: In addition to gaining an understanding about the metal coordinating properties of the salicylate MBIs by using [(Tp^Ph,Me)Zn(MBI)] model complexes, the physicochemical properties of the MBIs were also studied. The acidity (pKa) and lipophilicity (log P) were measured using potentiometric methods and the lipophilicity at physiological pH (log D7.4) was calculated from these two values (Table 1).[23–25]
Physicochemical properties were determined using a Sirius T3 instrument.[23–25] […] The pKa of a compound was determined by analysing each MBI sample in triplicate using potentiometric titrations. Experiments were typically performed over a pH range of 2.0–12.0. Standard deviations were derived from fitting all three replicate experiments. For water insoluble compounds methanol was added and the obtained apparent pKa (psKa) was extrapolated to the aqueous pKa by the Yasuda–Shedlovsky procedure. log P was determined via potentiometric titrations in the presence of varying ratios of octanol and water. The presence of octanol shifts the pKa of ionizable species, and based on the shifts, a log P can be determined. Measurements for log P determination were typically performed over a pH range of 2.0–12.0. Three experiments with varying ratios of water:octanol was performed, allowing for a standard deviation to be determined from the fitting of all measurements. MBI sample sizes were ∼0.5 mg for both pKa and log P measurements.

[5] = biological target: T1, Recombinant human glyoxalase I (GLO1); design: method as in previous studies (unpublished); conditions: ref previous studies (unpublished); read-out: IC50 against GLO1; cited from earlier work
[6] = assay type: physicochemical
Excerpt: This was confirmed by computationally calculated physicochemical data (Tables S2 and S3 ^†).

[7] = 100 μM, standard deviation in parentheses

T2 sequence (P08254 100-272 limits assumed): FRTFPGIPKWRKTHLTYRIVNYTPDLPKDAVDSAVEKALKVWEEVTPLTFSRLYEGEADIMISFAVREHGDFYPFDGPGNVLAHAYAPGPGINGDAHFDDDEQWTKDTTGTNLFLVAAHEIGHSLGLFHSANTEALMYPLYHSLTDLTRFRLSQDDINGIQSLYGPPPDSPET

Structure (SMILES) | %inhib Endo (PAN) [1] | inhibition at 100 µM [2, 7] | inhibition at 100 µM [3] | logP [4] | logD ([4]; pH 7.4) | IC50 [5] | %inhib GLO1 [2, 7] | IC50 ([2]; dose-response curves, read-out: IC50 against GLO1) | aqueous solubility [6]
O=C(O)c1ccccc1O [Compound 1, Salicylic acid, reference compound] | 12 (7) % | 22% | 8% | 2.18 | -2.4 | > 50 µM | – | – | –
Oc1ccccc1-c1nc2ccccc2s1 [Compound 11] | 21 (6) % | 94% | 0% | – | – | – | almost complete inhibition | 19.6 ± 4.7 µM | poor aqueous solubility
CS(=O)(=O)Nc1ccccc1-c1nc2ccccc2s1 [Compound 27] | 15 (7) % | 44% | 0% | – | – | – | – | – | poor aqueous solubility
c1ccc2sc(-c3cccc4nc[nH]c34)nc2c1 [Compound 28] | 4 (8) % | – | – | – | – | – | – | – | poor aqueous solubility
